The subject of test [1] is MCF-7 K303R ERα-overexpressing cells. The test can be described thus: Anchorage-independent soft agar growth assay. The format is cell-based, human. The following applies: for reduction in colonies: Tam 100 nM.
For test [2], the system named is MCF-7 Arom 1 cells. The test can be described thus: Anchorage-independent soft agar growth assay. The test is classed as cell-based, human. To be noted: for colony growth: ICI 182,780 1 μM.
Test [3] has as its system K303R Arom 1 and Arom 2 cells. The test is described as follows: Anchorage-independent soft agar growth assay. The test is classed as cell-based, human. The following applies: for AD-induced colony formation: AD 10 nmol/L + Ana 1 μmol/L, 14 days; for colony growth: ICI 182,780 1 μM.
Test [4] has as its system pAkt in K303R Arom 1 and 2 cells. The test can be described thus: Immunoblot of phosphorylated Akt. The test is classed as cell-based, human. The following applies: for basal Akt phosphorylation: LY 10 μmol/L, PI-103 1 μmol/L, Akti1/2 1 μmol/L, 30 min. (A western blot detects proteins with antibodies after separation by electrophoresis.)
The test system of test [5] is K303R ERα-Arom pools (MCF-7). The test is described as follows: Soft agar assay in stable pools. The test is classed as cell-based, human. To be noted: AD 10 nmol/L + Ana 1 μmol/L.
For test [6], the system named is MCF-7 Arom 1 cells. The test can be described thus: ELISA cell death detection assay. The test is classed as cell-based, human.
The subject of test [7] is K303R Arom 1 cells. The test is described as follows: ELISA cell death detection assay. The format is cell-based, human. Background: ELISA stands for enzyme-linked immunosorbent assay.
The target in test [8] is T1, aromatase (Homo sapiens, UniProt P11511).
T1 construct: Full-length human aromatase cDNA was amplified from the pCMV6-Arom plasmid; expressed in transfected cells; host or cells: MCF-7 parental and YFP-K303R ERα MCF-7 clones, stably transfected with pZeo-Arom
T1 sequence (P11511 1-503): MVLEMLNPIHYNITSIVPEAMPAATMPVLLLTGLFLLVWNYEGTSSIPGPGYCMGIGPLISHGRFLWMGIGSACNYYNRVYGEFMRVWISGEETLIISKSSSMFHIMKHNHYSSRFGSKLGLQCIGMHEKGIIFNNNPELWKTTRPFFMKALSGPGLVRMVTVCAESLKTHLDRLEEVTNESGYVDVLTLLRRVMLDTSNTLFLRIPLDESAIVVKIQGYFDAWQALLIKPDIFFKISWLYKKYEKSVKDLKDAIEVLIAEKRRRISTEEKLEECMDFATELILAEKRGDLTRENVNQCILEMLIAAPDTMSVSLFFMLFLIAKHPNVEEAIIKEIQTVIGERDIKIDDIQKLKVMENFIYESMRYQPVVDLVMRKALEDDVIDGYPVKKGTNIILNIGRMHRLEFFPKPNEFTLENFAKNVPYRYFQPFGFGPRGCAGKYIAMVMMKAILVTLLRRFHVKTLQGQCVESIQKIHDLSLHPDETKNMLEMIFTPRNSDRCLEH
The test is described as follows: Aromatase activity assay (3H-water release). The format is biochemical. The following applies: both cells (MCF-7 and MCF-7-K303R aromatase transfectants).

The subject of test [9] is PARP cleavage in MCF-7 Arom 1 cells. The test is described as follows: Immunoblot of PARP proteolysis. To be noted: AD 10 nmol/L + Ana 1 μmol/L, 24 h. The format is cell-based, human.
For test [10], the system named is PARP cleavage in K303R Arom 1 cells. The test can be described thus: Immunoblot of PARP proteolysis. The test is classed as cell-based, human. The following applies: AD 10 nmol/L + Ana 1 μmol/L, 24 h.
Test [11] concerns CHO K303R P cells. The test can be described thus: Soft agar assay in stable pools. The format is cell-based, Chinese hamster. To be noted: AD 10 nmol/L + Ana 1 μmol/L.
Test [12] relates to pAkt in MCF-7 Arom 1 cells. The test is described as follows: Immunoblot of phosphorylated Akt. The test is classed as cell-based, human.
In test [13] the test system is MCF-7 Arom 1 cells. The test can be described thus: MTT growth assay. The test is classed as cell-based, human. To be noted: AD 10 nM + Ana, 9 days, WT ERα cells. For orientation: Tetrazolium dyes change colour on reduction, which living cells bring about.
The test system of test [14] is K303R Arom 1 cells. The test can be described thus: MTT growth assay. The test is classed as cell-based, human. To be noted: AD 10 nM + Ana, 9 days, K303R mutant cells.
Test [15] concerns K303R ERα ERE-luciferase reporter. The test is described as follows: ERα transactivation assay (ERE-luciferase) in CHO cells. The format is cell-based, Chinese hamster. The following applies: LY 10 μmol/L or ICI 1 μmol/L.
Test [16] concerns MCF-7 WT cells. The test is described as follows: Anchorage-independent soft agar growth assay. The test is classed as cell-based, human. To be noted: Tam 100 nM, 14 days.
Test [17] deals with MCF-7 WT ERα-expressing cells. The test can be described thus: MTT growth assay with growth factors. The format is cell-based, human. To be noted: Tam alone.
Test [18] relates to MCF-7 K303R ERα-expressing cells. The test can be described thus: MTT growth assay with growth factors. The test is classed as cell-based, human.
For test [19], the system named is AP-1 activity in MCF-7 K303R cells. The test is described as follows: AP-1 luciferase reporter assay. The format is cell-based, human.
In test [20] the test system is phosphorylated HER2, Akt, MAPK in MCF-7 WT cells. The test is described as follows: Immunoblot after S305 blocking peptide delivery and heregulin. The format is cell-based, human. To be noted: peptide 4 μg/well 4 h, heregulin 10 min.
In test [21] the test system is phosphorylated S305 ERα, HER2, Akt, MAPK in MCF-7 K303R cells. The description is as above. The format is cell-based, human. To be noted: peptide 4 μg/well 4 h, heregulin 10 min.
The mark [22] stands for this setting: AD 10 nmol/L + Ana 1 μmol/L versus AD.

“And” between values parts separate entries of the source, which are not always exact repeats. Identical values can stand only once. “Also recorded” adds a separate entry of the source.

As for 17β-Estradiol [E2], the “soft agar growth at lowest E2 concentration” value in test [1] (E2 10^−12, 14 days, p=0.005) is on record as “significantly enhance”.
In the case of `O=c1[nH]c2ccccc2n1C1CCN(Cc2ccc(-c3nc4cc5nc[nH]c5cc4nc3-c3ccccc3)cc2)CC1` [Akti1/2, Akt inhibitor VIII isozyme-selective], the “inhibition of basal, AD-stimulated and Ana-stimulated growth” value in test [2] (Akti1/2 1 μmol/L) is recorded as around 30%. Also, the inhibition of growth (in general, the share of the control response that was lost under treatment) in test [3] (Akti1/2 1 μmol/L) is above 90%. Besides, the “basal Akt phosphorylation” value in test [4] was “effectively blocked”.
In the case of `CC(C)(C#N)c1cc(Cn2cncn2)cc(C(C)(C)C#N)c1` [Ana, anastrozole], the AD-stimulated growth result in [5] is given as “unable to reduce; also recorded: further stimulated”; in test [11], “did not reverse”. In addition, in test [2] (AD 10 nmol/L + Ana 1 μmol/L, 14 days), the AD-stimulated colony growth result is listed as “completely abrogated”. Also, the AD-induced colony formation result in test [3] is given as “did not inhibit; also recorded: unable to inhibit”; in test [3] (listed as AN), “unable to inhibit”. Besides, the cell apoptosis entry in test [6] (setting [22]) is “significant increase”. Further, the apoptotic response entry in test [7] (setting [22]) was “no change”. In test [8], the “reduction of aromatase activity” value was determined as 95%. Further, the “PARP proteolysis compared with AD treatment” value in test [9] is on record as “increased proteolysis”. Also, the PARP cleavage result in [10] is on record as “unchanged”. Moreover, the “AD-induced pAkt levels” value in [12] (AD 10 nM + Ana 1 μM, 1 h) is on record as “reduced”. In [4] (AD 10 nM + Ana 1 μM, 1 h), the “constitutive pAkt levels” value was “not affected; also recorded: unaffected”. For the same compound, the “decrease of AD-stimulated growth” value in test [13] is 47% and ~40%; in test [13] (listed as AN), 40%. In addition, in test [14], the “effect on AD-stimulated growth” value is on record as “had no effect”.
For the compound `C[C@]12CC[C@@H]3c4ccc(O)cc4C[C@@H](CCCCCCCCC[S+]([O-])CCCC(F)(F)C(F)(F)F)[C@H]3[C@@H]1CC[C@@H]2O` (stereo partly shown) [ICI 182,780, fulvestrant], the colony growth entry in test [2] is reported as “significantly suppressed”; in [2] (listed as ICI182,780) it was “suppressed”; in [3], “significantly suppressed”; in [3] (listed as ICI182,780), “suppressed”. Besides, the ERE activity entry in test [15] was “inhibited”. Also, in [12] (ICI182,780 1-48 h), the “basal pAkt” value is recorded as “not basal pAkt”. Besides, the “pAkt with short-term treatment” value in test [4] (ICI 1 μmol/L, 1-30 min) is on record as “no changes”. The pAkt levels entry in test [4] (ICI 1-48 h) was “decrease”.
In turn, `O=c1cc(N2CCOCC2)oc2c(-c3ccccc3)cccc12` [LY294002] returned an apoptosis induction in [6] (LY 10 μmol/L, 72 h) of 1.7 fold. Further, in test [7] (LY 10 μmol/L, 72 h), the “increase in the apoptotic rate compared with AD” value came to 3.6 fold.
With `COc1cccc(-c2cc(=O)c3ccccc3o2)c1N` [PD98059], in [3] (PD98059 10 μM), the “antiproliferative effects on basal growth” value was “not observed” and the “reversal of the AI^R phenotype” value is “did not reverse”. In addition, the “reversal of the AI^R phenotype” value in test [3] (PD98059 10 μM, listed as PD) is listed as “unable to reverse”.
Regarding `Oc1cccc(-c2nc(N3CCOCC3)c3oc4ncccc4c3n2)c1` [PI-103], the “basal Akt phosphorylation” value in test [4] is reported as “effectively blocked”.
As for `CC/C(=C(\c1ccccc1)c1ccc(OCCN(C)C)cc1)c1ccccc1` [Tam, tamoxifen], the reduction in colonies in [16] (estrogen (E2 1 nM)-stimulated) is given as 78%; in test [16] (heregulin (2 ng/ml)-stimulated), 96%; in test [1] (estrogen (E2 1 nM)-stimulated, 14 days) it was 54%; in test [1] (heregulin (2 ng/ml)-stimulated, 14 days), 21%. Besides, in test [17], the control growth result is “inhibited”. In test [18] (Tam alone, MTT), the growth entry is “enhanced”. Also, in test [18] (Tam with heregulin, EGF or IGF-1, MTT), the “growth when stimulated with growth factors” value was “super-agonist”. In addition, the “growth factor-induced AP-1 activity” value in [19] (presence of Tam) is given as “unable to reverse”. The heregulin-induced anchorage-independent growth entry in [1] (Tam, 14 days) is given as “unable to block; also recorded: failed to inhibit”.
“IKRSKKNSLALSC (blocking sequence) [S305 blocking peptide]”: the “heregulin-induced phosphorylation of downstream signaling molecules (HER2, Akt, MAPK)” value in test [20] and in [21] (more pronounced than in WT) was “abrogated; also recorded: inhibited” throughout. For the same compound, the “phosphorylation of the mutant receptor at S305” value in test [21] is recorded as “abrogated”.
For the compound heregulin, the AP-1 activity entry in test [19] (only in mutant-expressing cells) is given as “induced high AP-1 activity”.

(Values after US20100120039A1, “METHODS AND COMPOSITIONS IN BREAST CANCER THERAPY RESISTANCE” (priority 2008, published 2010).)
